One data set in a line: physchem. To be noted: buffer, pH 7.4.
Data set [1] in a line: Intrinsic clearance in Han Wistar rat hepatocytes assessed per 10^6 cells. To be noted: read-out: CLH. Format: ADME, cell-based, Hepatocyte.
Data set [2] is described as follows: Intrinsic clearance in human hepatocytes assessed per 10^6 cells. Format: ADME, cell-based, Hepatocyte. As to conditions: read-out: CLH.
Data set [3] in a line: Percentage unbound in human plasma by equilibrium dialysis method. It counts as ADME, cell-free. In general terms: In equilibrium dialysis free small molecules cross a membrane that holds back macromolecules.
Data set [4] can be described thus: Percentage unbound in Han Wistar rat plasma by equilibrium dialysis method. It counts as ADME, cell-free.
Data set [5] can be described thus: Half life in rat at 1 mg/kg, po. Format: ADME, organism-based. As to conditions: in vivo.
The nature of data set [6]: Volume of distribution at steady state in rat at 0.5 mg/kg, iv or 1 mg/kg, po. It counts as ADME, organism-based. As to conditions: in vivo, read-out: Vdss.
A short description of data set [7]: Half life in rat at 0.5 mg/kg, iv. It counts as ADME, organism-based. To be noted: in vivo.
The next data set in a line: in vivo. As to conditions: rat, po, 1 mg/kg.
Data set [8] in a line: Clearance in rat at 0.5 mg/kg, iv or 1 mg/kg, po. Format: ADME, organism-based. As to conditions: in vivo.

Each structure is given as a SMILES string. A value given as a limit tells only on which side of the number the result lay.

What is called logD is lipophilicity at a set pH, counting ionised and neutral species. A lower logD goes with lower lipophilicity. Usually fraction unbound stands for the share of the substance not bound to proteins or other matrix. A lower fraction unbound goes with little free substance. Broadly, the half-life is how long it takes for the measured level to halve. Low values mean fast loss, high ones slow loss. The term bioavailability denotes the share of a dose that reaches the circulation, judged against a reference dose that is usually intravenous. Higher therefore signals much systemic uptake.

With `O=C(O)/C=C/c1ccc(C2c3ccc(O)cc3CCN2Cc2ccccc2)cc1` (stereo not given), in the data set “physchem”, the logD was determined as 2.2. The hepatocyte CLint in data set [1] was 40 µL/min/1e6 cells; in [2] it was 150 µL/min/1e6 cells. The fraction unbound in [3] came to 0.007; in data set [4], 0.013.
Regarding `Cc1cc2c(cc1O)CCN(CC(C)C)[C@@H]2c1ccc(/C=C/C(=O)O)cc1`, the pH-dependent lipophilicity (logD) in the data set “physchem” came to 1.8. The hepatocyte CLint in data set [1] and in data set [2] was 17 µL/min/1e6 cells throughout. The fraction unbound came out at 0.091 in data set [3] and 0.088 in data set [4].
Regarding `C[C@@H]1Cc2cc(O)ccc2[C@@H](c2c(F)cc(/C=C/C(=O)O)cc2F)N1CC(C)(C)F`, in the data set “physchem”, the logD amounted to 2.1. Besides, the figures for the hepatocyte CLint in data set [1] and in [2] were 74 µL/min/1e6 cells and 78 µL/min/1e6 cells, respectively. Besides, the fraction unbound in data set [3] turned out to be 0.023; in data set [4], 0.011.
For `CC(C)CN1CCc2cc(O)ccc2[C@@H]1c1ccc(/C=C/C(=O)O)cc1` the same measures were 1.4, 49 µL/min/1e6 cells, 4 µL/min/1e6 cells, 0.019 and 0.087.
The corresponding values for `Cc1c(O)ccc2c1CCN(CC(C)C)[C@@H]2c1ccc(/C=C/C(=O)O)cc1` are 1.6, 32 µL/min/1e6 cells, 9 µL/min/1e6 cells, 0.024 and 0.063.
For `CC(C)CN1CCc2cc(O)ccc2[C@@]1(C)c1ccc(/C=C/C(=O)O)cc1`, the logD in “physchem” came out at 2.2. For the same compound, the hepatocyte CLint in data set [1] amounted to 33 µL/min/1e6 cells; in [2] it was 40 µL/min/1e6 cells. Also, the fraction unbound was determined as 0.009 in data set [3] and 0.019 in data set [4].
Compound `C[C@H](CF)CN1[C@H](c2c(F)cc(/C=C/C(=O)O)cc2F)c2ccc(O)cc2C[C@H]1C` gave a log distribution coefficient (logD) in “physchem” of 2.5. Also, the hepatocyte CLint amounted to 94 µL/min/1e6 cells in data set [1] and 170 µL/min/1e6 cells in [2]. Moreover, the free fraction (fraction unbound) in data set [3] was determined as 0.009; in data set [4], 0.01.
Regarding `CC(C)(F)CN1[C@H](c2ccc(/C=C/C(=O)O)cc2)c2ccc(O)cc2CC1(C)C`, the pH-dependent lipophilicity (logD) in the data set “physchem” worked out at 2.3. The hepatocyte CLint in data set [1] turned out to be 59 µL/min/1e6 cells; in data set [2], 19 µL/min/1e6 cells. Further, the fraction unbound in data set [3] is 0.007; in data set [4] it was 0.025.
As for `CC(C)CN1[C@H](c2ccc(/C=C/C(=O)O)cc2)c2ccc(O)cc2CC1(C)C`, the half-life was 7.4 h in [5] and 5.8 h in data set [7]. This compound also showed a logD in “physchem” of 1.5. Further, the values for the hepatocyte CLint in data set [1] and in [2] were 7 µL/min/1e6 cells and 6 µL/min/1e6 cells, respectively. Moreover, in data set [6], the Vd is 5.9 L/kg. Moreover, the fraction unbound in [3] came out at 0.035; in data set [4] it was 0.11. The bioavailability in the data set “in vivo” came out at 66%. The clearance in [8] is 21 mL/min/kg.
With `COc1ccc2c(c1)C[C@@H](C)N(CC(C)C)[C@@H]2c1ccc(/C=C/C(=O)O)cc1`, the log distribution coefficient (logD) in the data set “physchem” came to 2.3. The hepatocyte CLint in [1] was 43 µL/min/1e6 cells; in [2], 56 µL/min/1e6 cells. Moreover, the figures for the fraction unbound in data set [3] and in data set [4] were 0.02 and 0.034, respectively.
Take `C[C@H](CF)CN1[C@H](c2ccc(/C=C/C(=O)O)cc2)c2ccc(O)cc2C[C@H]1C`: the hepatocyte CLint in data set [1] was 47 µL/min/1e6 cells; in [2], 100 µL/min/1e6 cells. The fraction unbound in data set [3] is 0.026; in data set [4], 0.024.
With `CC(C)CN1[C@H](C)Cc2cc(O)ccc2[C@@]1(C)c1ccc(/C=C/C(=O)O)cc1`, the half-life in data set [5] is 5.6 h; in data set [7], 2.4 h. Also, the logD in “physchem” stood at 2.7. Moreover, the results for the hepatocyte CLint in data set [1] and in data set [2] were 15 µL/min/1e6 cells and 18 µL/min/1e6 cells, respectively. For the same compound, the Vd in [6] was found to be 1.6 L/kg. Besides, the results for the fraction unbound in data set [3] and in [4] were 0.015 and 0.013, respectively. In “in vivo”, this compound came in with a bioavailability of 33%. Also, the clearance in data set [8] was determined as 19 mL/min/kg.
For `CC(C)CN1[C@H](c2c(F)cc(/C=C/C(=O)O)cc2F)c2ccc(O)cc2CC1(C)C`, the pH-dependent lipophilicity (logD) in the data set “physchem” amounted to 2.7. The hepatocyte CLint is 34 µL/min/1e6 cells in data set [1] and 33 µL/min/1e6 cells in data set [2]. Besides, the free fraction (fraction unbound) in [3] was determined as 0.005; in data set [4], 0.004. In addition, the bioavailability in “in vivo” is above 70%.
In the data set “physchem”, `O=C(O)/C=C/c1ccc(C2c3ccc(O)cc3CCN2c2ccc(OC(F)(F)F)cc2)cc1` (stereo not given) displayed a pH-dependent lipophilicity (logD) of 3.7. For the same compound, the hepatocyte CLint in [1] came to 20 µL/min/1e6 cells; in data set [2], 11 µL/min/1e6 cells. Also, the fraction unbound in data set [3] and in data set [4] was 0.0006 in each case.
In “physchem”, `C[C@H](CF)CN1[C@H](c2c(F)cc(/C=C/C(=O)O)cc2F)c2ccc(O)cc2CC1(C)C` gave a logD of 3.1. For the same compound, the hepatocyte CLint in data set [1] was 68 µL/min/1e6 cells; in data set [2] it was 39 µL/min/1e6 cells. Also, the unbound share (fraction unbound) came to 0.002 in data set [3] and 0.005 in data set [4].
With `COC[C@H](C)CN1[C@H](c2c(F)cc(/C=C/C(=O)O)cc2F)c2ccc(O)cc2CC1(C)C`, the logD in “physchem” was 2. For the same compound, the figures for the hepatocyte CLint in [1] and in data set [2] were 180 µL/min/1e6 cells and 88 µL/min/1e6 cells, respectively. Besides, the fraction unbound in data set [3] was found to be 0.01; in data set [4], 0.042.
In the data set “physchem”, `C[C@H](CF)CN1[C@H](c2ccc(/C=C/C(=O)O)cc2)c2ccc(O)cc2CC1(C)C` yielded a log distribution coefficient (logD) of 1.8. In addition, the results for the hepatocyte CLint in [1] and in data set [2] were 24 µL/min/1e6 cells and 14 µL/min/1e6 cells, respectively. The fraction unbound in data set [3] is 0.01; in data set [4], 0.028. For the same compound, the bioavailability in the data set “in vivo” was above 70%.
In the case of `CC(C)CN1CCc2cc(O)ccc2[C@H]1c1ccc(/C=C/C(=O)O)cc1`, the half-life in data set [5] was 3 h; in data set [7], 0.2 h. The same compound gave a logD in “physchem” of 1.3. The hepatocyte CLint in data set [1] and in [2] was 38 µL/min/1e6 cells throughout. In addition, the Vd in data set [6] is 0.5 L/kg. For the same compound, the fraction unbound stood at 0.063 in [3] and 0.037 in [4]. Further, the bioavailability in “in vivo” is 26%. The compound also registered a clearance in [8] of 44 mL/min/kg.
In “physchem”, `COC[C@H](C)CN1[C@H](c2c(F)cc(/C=C/C(=O)O)cc2F)c2ccc(O)cc2C[C@H]1C` had a logD of 1.6. The hepatocyte CLint in data set [1] came to 110 µL/min/1e6 cells; in data set [2], 45 µL/min/1e6 cells. In addition, the fraction unbound in data set [3] is 0.038; in data set [4] it was 0.053.
As to `CC(C)CN1[C@H](c2ccc(/C=C/C(=O)O)cc2)c2ccccc2C[C@H]1C`, the log distribution coefficient (logD) in “physchem” turned out to be 2.5. Moreover, the hepatocyte CLint in data set [1] turned out to be 24 µL/min/1e6 cells; in [2] it was 45 µL/min/1e6 cells. Moreover, the values for the fraction unbound in [3] and in [4] were 0.021 and 0.016, respectively.
As for `O=C(O)/C=C/c1ccc(C2c3ccc(O)cc3CCN2c2ccccc2)cc1` (stereo not given), the log distribution coefficient (logD) in the data set “physchem” was 2.4. Also, the hepatocyte CLint in data set [1] was found to be 87 µL/min/1e6 cells; in data set [2] it was 67 µL/min/1e6 cells. The fraction unbound in [3] and in [4] was 0.012 throughout.
As for `C[C@@H]1Cc2cc(O)ccc2[C@@H](c2ccc(/C=C/C(=O)O)cc2)N1c1ccc(OC(F)(F)F)cc1`, the half-life is 6.7 h in data set [5] and 4.2 h in [7]. This compound also had a pH-dependent lipophilicity (logD) in the data set “physchem” of 4.2. Further, the hepatocyte CLint in data set [1] and in [2] was 9 µL/min/1e6 cells throughout. In addition, the Vd in data set [6] was determined as 1.1 L/kg. Further, the figures for the fraction unbound in data set [3] and in data set [4] were 0.009 and 0.0002, respectively. The clearance in data set [8] was 4.2 mL/min/kg.

These data come from ChEMBL document CHEMBL3774369, “Tetrahydroisoquinoline Phenols: Selective Estrogen Receptor Downregulator Antagonists with Oral Bioavailability in Rat” (ACS Med Chem Lett, 2016).
